Laboratory results: patent publication US20070128217A1 (priority 2003, published 2007)

Experiments:
[1] = system: control sera (pooled serum of ten healthy LUMC hospital workers; commercial negative donor pooled serum from the Dutch bloodbank); type: binding, human; design: Binding of Control serum LUMC to linear peptides / Binding of Control serum Blood-bank to linear peptides / Binding of Control serum LUMC to looped peptides / Binding of Control Serum Blood-Bank to Looped peptides / Binding of Control serum LUMC to linear peptides of the protein M of SARS-CoV Urbani / Binding of Control serum Blood-bank to linear peptides of the protein M of SARS-CoV Urbani / Binding of Control serum LUMC to looped peptides of the protein M of SARS-CoV Urbani / Binding of Control Serum Blood-Bank to Looped peptides of the protein M of SARS-CoV Urbani: unit not given here
[2] = system: antibodies in sera from SARS patients (sera 1a, 1b, 2, 6, 37, 62, London, SARS-yellow, SARS-green); type: binding, human; design: Binding of serum 6 to linear peptides of protein X1 of SARS-CoV Urbani / Binding of serum 37 to linear peptides of protein X1 of SARS-CoV Urbani / Binding of serum 6 to looped/cyclic peptide (PEPSCAN-ELISA) / Binding of serum 37 to looped/cyclic peptide (PEPSCAN-ELISA) / Binding of serum 37 to looped/cyclic peptides of protein X1 of SARS-CoV Urbani / Binding of serum 6 to linear peptides of protein X2 / Binding of serum 37 to linear peptides of protein X2 / Binding of serum 37 to looped/cyclic peptides of protein X2 of SARS-CoV Urbani / Binding of serum 6 to linear peptides of protein M of SARS-CoV Urbani / Binding of serum 37 to linear peptides of protein M of SARS-CoV Urbani / Binding of serum 6 to looped/cyclic peptides of protein M of SARS-CoV Urbani / Binding of serum 37 to looped/cyclic peptides of protein M of SARS-CoV Urbani / Binding of serum 6 to linear peptides of protein X3 of SARS-CoV Urbani / Binding of serum 37 to linear peptides of protein X3 of SARS-CoV Urbani / Binding of serum 37 to looped/cyclic peptides of protein X3 of SARS-CoV Urbani / Binding of serum 6 to linear peptides of protein X4 of SARS-CoV Urbani / Binding of serum 37 to linear peptides of protein X4 of SARS-CoV Urbani / Binding of serum 37 to looped/cyclic peptides of protein X4 of SARS-CoV Urbani / Binding of serum 6 to linear peptides of protein X5 of SARS-CoV Urbani / Binding of serum 37 to linear peptides of protein X5 of SARS-CoV Urbani / Binding of serum 37 to looped/cyclic peptides of protein X5 of SARS-CoV Urbani / Binding of serum 6 to linear peptides of protein N of SARS-CoV Urbani / Binding of serum 37 to linear peptides of protein N of SARS-CoV Urbani / Binding of serum 6 to linear peptide (PEPSCAN-ELISA) / Binding of serum 1a to looped/cyclic peptides of protein N of SARS-CoV Urbani / Binding of serum 1b to looped/cyclic peptides of protein N of SARS-CoV Urbani / Binding of serum 2 to looped/cyclic peptides of protein N of SARS-CoV Urbani / Binding of serum 6 to looped/cyclic peptides of protein N of SARS-CoV Urbani / Binding of serum 37 to looped/cyclic peptides of protein N of SARS-CoV Urbani / Binding of serum 62 to looped/cyclic peptides of protein N of SARS-CoV Urbani / Binding of serum London to looped/cyclic peptides of protein N of SARS-CoV Urbani / Binding of serum SARS-green to looped/cyclic peptides of protein N of SARS-CoV Urbani: unit not given here
[3] = system: rabbit serum obtained by immunizing a rabbit with the SARS-CoV strain Frankfurt 1; type: binding; design: Binding of a rabbit serum to linear peptides / Binding of a rabbit serum to looped peptides / Rabbit serum linear peptides / Rabbit serum looped peptides / Binding of a rabbit serum to linear peptides of protein N of SARS-CoV Urbani (Rabbit serum linear peptides) / Binding of a rabbit serum to looped/cyclic peptides of protein N of SARS-CoV Urbani (Rabbit serum looped peptides): unit not given here

Row | Sequence | Recognition of the peptide by sera of SARS-CoV infected individuals, and form (linear, looped/cyclic) in which it is recognized [2] | Rabbit serum linear peptides [3] | Rabbit serum looped peptides [3] | Binding of Control Serum Blood-Bank to Looped peptides [1] | Binding of Control serum Blood-bank to linear peptides [1] | Binding of Control serum LUMC to linear peptides [1] | Binding of Control serum LUMC to looped peptides [1] | Binding of serum 1a to linear peptides of protein X1 of SARS-CoV Urbani [2] | Binding of serum 1a to looped/cyclic peptides of protein X1 of SARS-CoV Urbani [2] | Binding of serum 1b to linear peptides of protein X1 of SARS-CoV Urbani [2] | Binding of serum 1b to looped/cyclic peptides of protein X1 of SARS-CoV Urbani [2] | Binding of serum 2 to linear peptides of protein X1 of SARS-CoV Urbani [2] | Binding of serum 6 to linear peptides of protein X1 of SARS-CoV Urbani [2] | Binding of serum 37 to linear peptides of protein X1 of SARS-CoV Urbani [2] | Binding of serum 62 to linear peptides of protein X1 of SARS-CoV Urbani [2] | Binding of serum London to linear peptides of protein X1 of SARS-CoV Urbani [2] | Binding of serum SARS-green to linear peptides of protein X1 of SARS-CoV Urbani [2] | Binding of serum SARS-yellow to linear peptides of protein X1 of SARS-CoV Urbani [2] | Binding of a rabbit serum to linear peptides [3] | Binding of a rabbit serum to looped peptides [3] | other results
1 | PLRGTIVTRPLMESE | recognized in looped/cyclic form | 0.4 | 0.4 |  |  |  |  |  |  |  |  |  |  |  |  |  |  |  |  |  | Binding of Control Serum Blood-Bank to Looped peptides of the protein M of SARS-CoV Urbani [1]: 0.5; Binding of Control serum Blood-bank to linear peptides of the protein M of SARS-CoV Urbani [1]: 0.6; Binding of Control serum LUMC to linear peptides of the protein M of SARS-CoV Urbani [1]: 0.3; Binding of Control serum LUMC to looped peptides of the protein M of SARS-CoV Urbani [1]: 0.8; Binding of serum 1a to linear peptides of protein M of SARS-CoV Urbani [2]: 0.8; Binding of serum 1b to linear peptides of protein M of SARS-CoV Urbani [2]: 0.7; Binding of serum 2 to linear peptides of protein M of SARS-CoV Urbani [2]: 0.4; Binding of serum 6 to linear peptides of protein M of SARS-CoV Urbani [2]: 0.4; Binding of serum 37 to linear peptides of protein M of SARS-CoV Urbani [2]: 0.8; Binding of serum 62 to linear peptides of protein M of SARS-CoV Urbani [2]: 0.7; Binding of serum London to linear peptides of protein M of SARS-CoV Urbani [2]: 0.3; Binding of serum SARS-green to linear peptides of protein M of SARS-CoV Urbani [2]: 0.5; Binding of serum SARS-yellow to linear peptides of protein M of SARS-CoV Urbani [2]: 0.0
2 | PNVQIHTIDGSSGVA |  |  |  | 0.5 | 0.5 | 0.6 | 0.5 | 0.6 | 0.4 | 0.4 | 0.3 | 0.5 | 0.4 | 0.7 | 0.6 | 0.3 | 0.2 | 0.4 | 0.1 | 0.4 | Binding of serum 2 to looped/cyclic peptides of protein X1 of SARS-CoV Urbani [2]: 0.2; Binding of serum 6 to looped/cyclic peptides of protein X1 of SARS-CoV Urbani [2]: 0.2; Binding of serum 37 to looped/cyclic peptides of protein X1 of SARS-CoV Urbani [2]: 0.3; Binding of serum 62 to looped/cyclic peptides of protein X1 of SARS-CoV Urbani [2]: 0.3; Binding of serum London to looped/cyclic peptides of protein X1 of SARS-CoV Urbani [2]: 0.2; Binding of serum SARS-green to looped/cyclic peptides of protein X1 of SARS-CoV Urbani [2]: 0.2; Binding of serum SARS-yellow to looped/cyclic peptides of protein X1 of SARS-CoV Urbani [2]: 0.2
3 | PYNSVTDTIVVTEGD |  |  |  | 0.4 | 0.4 | 0.3 | 0.4 | 0.5 | 0.4 | 0.4 | 0.3 | 0.4 | 0.4 | 0.5 | 0.4 | 0.2 | 0.2 | 0.3 | 0.1 | 0.3 | Binding of serum 2 to looped/cyclic peptides of protein X1 of SARS-CoV Urbani [2]: 0.3; Binding of serum 6 to looped/cyclic peptides of protein X1 of SARS-CoV Urbani [2]: 0.1; Binding of serum 37 to looped/cyclic peptides of protein X1 of SARS-CoV Urbani [2]: 0.3; Binding of serum 62 to looped/cyclic peptides of protein X1 of SARS-CoV Urbani [2]: 0.3; Binding of serum London to looped/cyclic peptides of protein X1 of SARS-CoV Urbani [2]: 0.2; Binding of serum SARS-green to looped/cyclic peptides of protein X1 of SARS-CoV Urbani [2]: 0.5; Binding of serum SARS-yellow to looped/cyclic peptides of protein X1 of SARS-CoV Urbani [2]: 0.4
4 | QASLPFGWLVIGVAF |  |  |  | 0.4 | 0.7 | 0.6 | 0.4 | 0.7 |  | 0.6 |  | 0.6 | 0.4 | 0.6 | 0.6 | 0.2 | 0.1 | 0.5 | 0.3 | 0.4 | Binding of serum 1a to looped/cyclic peptide (PEPSCAN-ELISA) [2]: 0.4; Binding of serum 1b to looped/cyclic peptide (PEPSCAN-ELISA) [2]: 0.3; Binding of serum 2 to looped/cyclic peptide (PEPSCAN-ELISA) [2]: 0.2; Binding of serum 6 to looped/cyclic peptide (PEPSCAN-ELISA) [2]: 0.3; Binding of serum 37 to looped/cyclic peptide (PEPSCAN-ELISA) [2]: 0.4; Binding of serum 62 to looped/cyclic peptide (PEPSCAN-ELISA) [2]: 0.4; Binding of serum London to looped/cyclic peptide (PEPSCAN-ELISA) [2]: 0.2; Binding of serum SARS-green to looped/cyclic peptide (PEPSCAN-ELISA) [2]: 0.2; Binding of serum SARS-yellow to looped/cyclic peptide (PEPSCAN-ELISA) [2]: 0.2
5 | QEEVQQELYSPLFLI | recognized in looped/cyclic form | 0.4 | 0.4 | 0.7 | 0.8 | 0.8 | 0.8 |  |  |  |  |  |  |  |  |  |  |  |  |  | Binding of serum 1a to linear peptides of protein X4 of SARS-CoV Urbani [2]: 0.8; Binding of serum 1b to linear peptides of protein X4 of SARS-CoV Urbani [2]: 0.9; Binding of serum 2 to linear peptides of protein X4 of SARS-CoV Urbani [2]: 0.6; Binding of serum 6 to linear peptides of protein X4 of SARS-CoV Urbani [2]: 0.6; Binding of serum 37 to linear peptides of protein X4 of SARS-CoV Urbani [2]: 0.8; Binding of serum 62 to linear peptides of protein X4 of SARS-CoV Urbani [2]: 0.8; Binding of serum London to linear peptides of protein X4 of SARS-CoV Urbani [2]: 0.8; Binding of serum SARS-green to linear peptides of protein X4 of SARS-CoV Urbani [2]: 1.0; Binding of serum SARS-yellow to linear peptides of protein X4 of SARS-CoV Urbani [2]: 0.8
6 | QELLIQQWIQFMMSR |  |  |  | 0.7 | 0.5 | 0.3 | 0.5 |  |  |  |  |  |  |  |  |  |  |  | 0.3 | 0.4 | Binding of serum 1a to linear peptides of protein X2 [2]: 0.7; Binding of serum 1a to looped/cyclic peptides of protein X2 of SARS-CoV Urbani [2]: 0.5; Binding of serum 1b to linear peptides of protein X2 [2]: 0.4; Binding of serum 1b to looped/cyclic peptides of protein X2 of SARS-CoV Urbani [2]: 0.5; Binding of serum 2 to linear peptides of protein X2 [2]: 0.4; Binding of serum 2 to looped/cyclic peptides of protein X2 of SARS-CoV Urbani [2]: 0.6; Binding of serum 6 to linear peptides of protein X2 [2]: 0.3; Binding of serum 6 to looped/cyclic peptides of protein X2 of SARS-CoV Urbani [2]: 0.6; Binding of serum 37 to linear peptides of protein X2 [2]: 0.5; Binding of serum 37 to looped/cyclic peptides of protein X2 of SARS-CoV Urbani [2]: 0.5; Binding of serum 62 to linear peptides of protein X2 [2]: 0.5; Binding of serum 62 to looped/cyclic peptides of protein X2 of SARS-CoV Urbani [2]: 0.7; Binding of serum London to linear peptides of protein X2 [2]: 0.4; Binding of serum London to looped/cyclic peptides of protein X2 of SARS-CoV Urbani [2]: 1.2; Binding of serum SARS-green to linear peptides of protein X2 [2]: 0.6; Binding of serum SARS-green to looped/cyclic peptides of protein X2 of SARS-CoV Urbani [2]: 0.3; Binding of serum SARS-yellow to linear peptides of protein X2 [2]: 0.6; Binding of serum SARS-yellow to looped/cyclic peptides of protein X2 of SARS-CoV Urbani [2]: 0.5
